The test system of data set [1] is H3K27ac. In words: H3K27ac ChIP-seq with Drosophila spike-in (ChIP-RX) in Kelly cells. It is filed as cell-based, human. The settings on record: 500 nM. As for the experimental part: ChIP-seq was performed as previously described for cell lines (Durbin et al. Nat. Genet. 50:1240-6 (2018)). The following antibodies were used for ChIP: EP300 (Abcam, ab10485), CBP (#7389, Cell Signaling Technology®), TFAP2β (#2509, Cell Signaling Technology®), ASCL1 (sc-374104, Santa Cruz Biotechnology) and H3K27ac (Abcam ab4729). For each ChIP, 10 μg of antibody was added to 3 ml of sonicated nuclear extract. Illumina® sequencing, library construction, and ChIP-seq analysis methods were performed as described in Mansour et al. Science 346, 1373-7 (2014) and Sanda et al. Cancer Cell 22:209-21 (2012). Remaining ChIP-seq and assay for transposase-accessible chromatin (ATAC)-sequencing data were extracted from previously published datasets (GSE120074, GSE94822, GSE65664) available through the GEO portal. For experiments involving analysis of quantitative changes in H3K27ac, pellets of neuroblastoma cells were externally spiked in with similarly fixed and processed S2 cells at 1:10 ratio, prior to sonication.
ChIP-RX reads from Kelly cells treated with 500 nM JQAD1 were aligned in multiple steps. Reads were aligned to the dm6 revision of the D. melanogaster reference genome with -k 1 —chunkmbs 256—best to identify spiked-in DNA. Counts of fly reads were determined by counting unique read names in the aligned read file. Remaining non-fly reads were aligned to the hg19 revision of the human reference genome with parameters -k 2 -m 2 -chunkmbs 256 -best -175. Visualization files were constructed using macs 1.4 with parameters -w -S -space=50 -nomodel -shiftsize=200 to generate wiggle files, which were subsequently normalized by the millions of fly-mapped reads in the corresponding sample.
H3K27ac ChIP-RX read coverage of stitched enhancers was quantified using bamToGFF with parameter -t TRUE and divided by the millions of mapped reads, from which read-per-million values from the corresponding input experiment was subtracted. These values were used to create fold-changes during the treatment time-course.

Data set [2] in a line: Maximum tolerated dose testing, daily IP dosing in CD1 mice. In kind it is in vivo. As for the experimental part:
For toxicity studies, four female CD1 mice (Charles River Laboratories) were injected intraperitoneally (IP) with single doses of 10 mg/Kg (R,S)-JQAD1 solubilized in 10% hydroxypropyl β-cyclodextrin (Sigma-Aldrich®) in sterile water. Following injection, blood concentration of (R,S)-JQAD1 was measured by serial measurements of animal serum at time points out to 24 h, by liquid chromatography with tandem mass spectrometry (LC-MS/MS) analysis. Pharmacokinetics were performed at ChemPartner in Shanghai, China, using LC-MS/MS method and pharmacokinetics parameters (Tmax, Cmax, T1/2, AUC, etc.) calculated with WinNonlin® V 6.2 statistics software (Pharsight Corporation) using a noncompartmental model. For maximally tolerated dose (MTD) testing, six female CD1 mice were treated with daily IP doses of (R,S)-JQAD1 at 10, 20, or 40 mg/kg. Animals were monitored for animal weight, grooming and behavior daily without noted effects. […] Animal weights, behavior and grooming were monitored daily, for a total of 21 days. […] Blood samples were obtained by retro-orbital puncture and blood analyzed at the Small Animal Imaging Facility at Beth Israel Deaconess Medical Center (Boston, MA), on a Hemavet® 9500FS (Drew Scientific) for blood counts, creatinine, AST, ALT, ALP, GGTP, and BUN measurements.

Data set [3] relates to Kelly NB cell xenografts. As to the kind of experiment: Kelly NB cell subcutaneous xenografts in NSG mice. In kind it is in vivo. The settings on record: 40 mg/Kg IP once or twice daily. The procedure:
For tumor studies, eight-week-old female NSG™ mice (Jackson Laboratories) were subcutaneously implanted with 2.5×10^6 Kelly cells in 50% matrigel/PBS. Mice were assigned to three groups: vehicle (n=11), JQAD1 (40 mg/kg/day) (n=12) or JQAD1 (40 mg/kg, twice daily) (n=12) by IP injection. Treatment with small-molecule inhibitors was initiated once tumors engrafted and reached 100-150 mm^3. Mice were treated for 21 days and then followed for survival. Tumors were measured by calipers, and mice were weighed every three days. Animals were euthanized according to institutional guidelines when tumors reached […] in length or width, or if animals became moribund. Tumor sizes were compared at each time point by two-way ANOVA with post-hoc Tukey tests. Tumor growth curve kinetics were analyzed by both logistic regression and mixed-effects two-way ANOVA with post-hoc Tukey tests to determine whether growth kinetics differed between treatment groups.
Separately, eight animals were xenografted as described above, and treated with vehicle (n=4) or JQAD1 (n=4) at 40 mg/kg IP daily for 14 days. These animals were sacrificed at day 14, following which tumor was extracted, and divided for immunohistochemical analysis or analysis of RNA expression by RNA sequencing (RNA-seq).

Data set [4] deals with T1, EP300 (Homo sapiens, UniProt Q09472).
T1 construct: Cells growing in culture were lysed for whole cell lysates; endogenous in cells; host or cells: Kelly, NGP, SIMA, BE2C neuroblastoma cells; Kelly xenografts in NSG mice
As to the kind of experiment: Immunohistochemistry of EP300 in Kelly cell xenografts. In kind it is in vivo. Particulars: 40 mg/Kg once daily. The procedure:
Separately, eight animals were xenografted as described above, and treated with vehicle (n=4) or JQAD1 (n=4) at 40 mg/kg IP daily for 14 days. These animals were sacrificed at day 14, following which tumor was extracted, and divided for immunohistochemical analysis or analysis of RNA expression by RNA sequencing (RNA-seq). Immunohistochemistry was performed on the Leica® Bond™ III automated staining platform. Antibody EP300 from Cell Signaling Technology®, catalog number 86377, clone D8Z4E, was run at 1:50 dilution using the Leica® Biosystems Refine Detection Kit with citrate antigen retrieval. Antibody KAT3A/CBP (catalog number ab2832, polyclonal, Abcam) was run at 1:200 using the Leica® Biosystems Refine Detection Kit with ethylenediaminetetraacetic acid (EDTA) antigen retrieval.

Entries after “also recorded” stand apart in the source; their conditions may differ.

T1 sequence (Q09472 whole entry): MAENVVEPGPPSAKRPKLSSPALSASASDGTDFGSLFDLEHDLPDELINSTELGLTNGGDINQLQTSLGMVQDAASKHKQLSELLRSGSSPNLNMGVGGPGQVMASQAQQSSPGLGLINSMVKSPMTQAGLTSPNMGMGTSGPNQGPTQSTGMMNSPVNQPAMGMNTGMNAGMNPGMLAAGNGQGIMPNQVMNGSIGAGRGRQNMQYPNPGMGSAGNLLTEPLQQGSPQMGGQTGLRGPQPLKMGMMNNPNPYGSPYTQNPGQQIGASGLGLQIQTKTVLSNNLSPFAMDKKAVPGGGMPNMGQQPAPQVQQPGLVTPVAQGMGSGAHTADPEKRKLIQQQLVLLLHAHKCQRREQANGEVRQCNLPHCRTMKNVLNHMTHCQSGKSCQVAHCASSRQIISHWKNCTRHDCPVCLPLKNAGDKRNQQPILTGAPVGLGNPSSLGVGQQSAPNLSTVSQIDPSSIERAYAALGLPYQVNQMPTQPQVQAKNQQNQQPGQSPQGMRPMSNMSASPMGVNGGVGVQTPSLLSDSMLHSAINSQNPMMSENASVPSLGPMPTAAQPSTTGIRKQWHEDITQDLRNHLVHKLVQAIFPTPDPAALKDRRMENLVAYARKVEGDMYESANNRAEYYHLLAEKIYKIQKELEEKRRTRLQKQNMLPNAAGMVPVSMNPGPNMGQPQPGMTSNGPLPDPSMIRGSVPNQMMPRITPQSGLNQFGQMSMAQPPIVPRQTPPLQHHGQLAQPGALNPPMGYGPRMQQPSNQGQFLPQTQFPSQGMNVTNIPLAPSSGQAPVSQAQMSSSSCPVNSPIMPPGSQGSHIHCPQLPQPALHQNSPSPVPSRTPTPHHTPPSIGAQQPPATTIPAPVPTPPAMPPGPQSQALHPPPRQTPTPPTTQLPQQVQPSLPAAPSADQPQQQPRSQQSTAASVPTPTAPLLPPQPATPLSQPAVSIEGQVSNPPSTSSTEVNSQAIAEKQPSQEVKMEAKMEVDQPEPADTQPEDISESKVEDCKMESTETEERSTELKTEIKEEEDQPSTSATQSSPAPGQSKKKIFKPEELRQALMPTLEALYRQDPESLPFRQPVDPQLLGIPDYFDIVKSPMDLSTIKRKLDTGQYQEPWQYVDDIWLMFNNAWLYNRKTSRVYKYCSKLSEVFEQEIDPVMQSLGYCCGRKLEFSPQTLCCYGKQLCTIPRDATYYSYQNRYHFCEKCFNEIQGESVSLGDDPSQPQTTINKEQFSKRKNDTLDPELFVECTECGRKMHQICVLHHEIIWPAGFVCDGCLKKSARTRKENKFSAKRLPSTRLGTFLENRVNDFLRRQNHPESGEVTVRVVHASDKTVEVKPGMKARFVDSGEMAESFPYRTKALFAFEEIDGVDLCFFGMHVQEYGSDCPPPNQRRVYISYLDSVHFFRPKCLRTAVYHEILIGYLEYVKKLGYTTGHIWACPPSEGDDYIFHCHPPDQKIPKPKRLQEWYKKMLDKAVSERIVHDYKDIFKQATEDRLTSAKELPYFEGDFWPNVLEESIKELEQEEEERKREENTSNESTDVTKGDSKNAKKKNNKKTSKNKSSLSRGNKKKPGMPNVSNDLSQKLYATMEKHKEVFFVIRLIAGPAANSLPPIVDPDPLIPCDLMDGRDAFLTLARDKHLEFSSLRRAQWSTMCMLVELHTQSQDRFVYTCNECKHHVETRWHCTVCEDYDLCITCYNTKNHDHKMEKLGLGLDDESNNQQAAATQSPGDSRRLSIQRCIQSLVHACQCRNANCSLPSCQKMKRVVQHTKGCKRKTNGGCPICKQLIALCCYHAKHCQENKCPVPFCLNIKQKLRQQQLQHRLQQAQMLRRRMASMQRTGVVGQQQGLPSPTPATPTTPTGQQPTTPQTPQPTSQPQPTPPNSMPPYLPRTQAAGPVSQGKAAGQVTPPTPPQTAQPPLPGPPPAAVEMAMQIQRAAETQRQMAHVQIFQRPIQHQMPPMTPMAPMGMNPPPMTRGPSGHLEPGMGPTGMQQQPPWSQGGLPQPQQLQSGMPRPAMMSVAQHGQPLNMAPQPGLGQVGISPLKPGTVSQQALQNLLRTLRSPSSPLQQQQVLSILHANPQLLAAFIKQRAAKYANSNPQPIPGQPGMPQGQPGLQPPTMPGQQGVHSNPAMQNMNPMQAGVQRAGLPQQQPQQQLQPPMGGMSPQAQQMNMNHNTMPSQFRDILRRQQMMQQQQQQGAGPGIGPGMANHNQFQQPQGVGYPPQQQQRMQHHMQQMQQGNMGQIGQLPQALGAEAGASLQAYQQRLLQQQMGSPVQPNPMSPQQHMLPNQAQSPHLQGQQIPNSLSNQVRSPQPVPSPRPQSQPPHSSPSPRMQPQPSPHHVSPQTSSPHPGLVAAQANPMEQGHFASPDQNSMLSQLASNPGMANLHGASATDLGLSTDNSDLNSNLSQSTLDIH

Consider `C[C@H](N(Cc1ccc(F)cc1)C(=O)CN1C(=O)O[C@@]2(CCc3cc(NC(=O)CCCCCCCCCCCNc4ccc5c(c4)C(=O)N(C4CCC(=O)NC4=O)C5=O)ccc32)C1=O)C(F)(F)F` (stereo partly drawn) [JQAD1, 12-((2-(2,6-dioxopiperidin-3-yl)-1,3-dioxoisoindolin-5-yl)amino)-N-((R)-3′-(2-((4-fluorobenzyl)((S)-1,1,1-trifluoropropan-2-yl)amino)-2-oxoethyl)-2′,4′-dioxo-2,3-dihydrospiro[indene-1,5′-oxazolidin]-5-yl)dodecanamide], for which, in data set [1] (6 h), the “H3K27ac signal at 6 h versus 0 h” value is on record as “no consistent change in acetylation”. The “H3K27ac signal genome-wide at 24 h” value in data set [1] (24 h) is listed as “general loss of H3K27ac signal genome-wide, which was most pronounced at densely acetylated super-enhancers”. Further, the “global suppression of all enhancers (H3K27ac marked sites)” value in data set [1] (24 h versus untreated) is “approximately 2 fold”. For the same molecule, the “tolerability / animal weight” value in data set [2] (daily IP at increasing doses (10, 20, 40 mg/kg), CD1 mice) is given as “well tolerated with no signs of animal weight loss; also recorded: no effect on animal weight”. For the same molecule, the “maximal dosage for single-dose IP administration without evident toxicity” value in data set [2] (mouse, IP) turned out to be 40 mg/kg. The body weight entry in data set [3] (NSG mice) was “body weight was maintained over 14 days of treatment”. Moreover, the survival result in data set [3] (log-rank p<0.0001 versus vehicle) is reported as “prolongation of survival; also recorded: prolongs survival”. Besides, in data set [3] (p<0.05), the xenograft tumor growth result is recorded as “suppression of xenograft tumor growth by day 3 of treatment”. Also, the “EP300 immunostaining of tumors” value in data set [4] is “loss of EP300 immunostaining compared with vehicle control tumors”.
